Assay results taken from the supplement of paper PMC10307832.

These cell lines were tested with O=C(O)C(Cc1ccccc1[N+](=O)[O-])=NNc1nc(-c2ccc(Cl)c(Cl)c2)cs1 (mixture of isomers) [4EGI-1] + CC(C)C[C@H](NC(=O)[C@H](Cc1ccccc1)NC(=O)c1cnccn1)B(O)O [Bortezomib] (partner 0.002 µM) (assay: relative viability (nuclei count vs DMSO), 5 days (fraction); higher = more cells survive). Conditions: first compound 0.5 µM.
Outline: (§1)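 Relative viability is defined as nuclei in treated wells over nuclei in vehicle wells. Duplicate plates were run and medians reported. Lung cancer cell lines in 1536-well plates were dosed by pin tool one day after seeding, with one drug or with a fixed anchor-drug dose plus five library-drug doses (not always all listed) in √10 steps, and nuclei were counted after 5 days.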

| Cell Line | relative viability |
| --- | --- |
| LOU-NH91 | 0.501 |
| LU99A | 1.28 |
| LXF-289 | 1.06 |
| NCI-H23 | 1.16 |
| NCI-H322M | 1.18 |
| NCI-H441 | 0.634 |
| NCI-H460 | 1.15 |
| NCI-H520 | 0.838 |
| NCI-H596 | 1 |
| NCI-H647 | 1.08 |
| NCI-H650 | 0.905 |
| NCI-H661 | 1.13 |
| NCI-H838 | 0.865 |
| NCI-H1355 | 1.32 |
| NCI-H1437 | 0.604 |
| NCI-H1650 | 0.197 |
| NCI-H1651 | 0.951 |

| Cell Line | relative viability |
| --- | --- |
| NCI-H1666 | 1.22 |
| NCI-H1734 | 0.948 |
| NCI-H1755 | 1.06 |
| NCI-H1915 | 1 |
| NCI-H1975 | 0.475 |
| NCI-H1993 | 1.19 |
| NCI-H2009 | 1.2 |
| NCI-H2023 | 1.53 |
| NCI-H2085 | 1.14 |
| NCI-H2087 | 1.04 |
| NCI-H2126 | 1.13 |
| NCI-H2228 | 1.25 |
| NCI-H2347 | 1.06 |
| NCI-H2405 | 0.972 |
| NCI-H3122 | 1.07 |
| PC-3 [JPC-3] | 0.787 |

Same assay, conditions: first compound 1.581 µM

| Cell Line | relative viability |
| --- | --- |
| LXF-289 | 1.06 |
| NCI-H322M | 1.21 |
| NCI-H441 | 0.517 |
| NCI-H520 | 0.521 |
| NCI-H596 | 0.932 |
| NCI-H647 | 1.08 |
| NCI-H661 | 0.752 |
| NCI-H1355 | 1.17 |
| NCI-H1437 | 0.632 |
| NCI-H1651 | 0.837 |
| NCI-H1666 | 0.693 |
| NCI-H1734 | 0.773 |
| NCI-H1755 | 0.94 |
| NCI-H1915 | 0.693 |
| NCI-H1975 | 0.393 |
| NCI-H1993 | 0.899 |
| NCI-H2009 | 0.954 |
| NCI-H2085 | 1.04 |
| NCI-H2087 | 0.782 |
| NCI-H2126 | 1.04 |
| NCI-H2228 | 0.952 |
| NCI-H2347 | 0.835 |
| NCI-H2405 | 0.858 |
| NCI-H3122 | 0.975 |
| PC-3 [JPC-3] | 0.81 |

Same assay, conditions: first compound 5 µM

| Cell Line | relative viability |
| --- | --- |
| LOU-NH91 | 0.531 |
| LU99A | 1.06 |
| LXF-289 | 1 |
| NCI-H23 | 1.18 |
| NCI-H322M | 1.18 |
| NCI-H441 | 0.659 |
| NCI-H460 | 1.08 |
| NCI-H520 | 0.999 |
| NCI-H596 | 1.05 |
| NCI-H647 | 1.13 |
| NCI-H650 | 0.753 |
| NCI-H661 | 0.877 |
| NCI-H838 | 0.82 |
| NCI-H1355 | 1.11 |
| NCI-H1437 | 0.442 |
| NCI-H1650 | 0.219 |
| NCI-H1651 | 0.934 |

| Cell Line | relative viability |
| --- | --- |
| NCI-H1666 | 0.862 |
| NCI-H1734 | 0.922 |
| NCI-H1755 | 0.918 |
| NCI-H1915 | 1.09 |
| NCI-H1975 | 0.399 |
| NCI-H1993 | 0.988 |
| NCI-H2009 | 1.19 |
| NCI-H2023 | 1.23 |
| NCI-H2085 | 1.16 |
| NCI-H2087 | 0.882 |
| NCI-H2126 | 1.07 |
| NCI-H2228 | 1.05 |
| NCI-H2347 | 0.992 |
| NCI-H2405 | 0.949 |
| NCI-H3122 | 0.918 |
| PC-3 [JPC-3] | 0.812 |

Same assay, conditions: first compound 15.81 µM

| Cell Line | relative viability |
| --- | --- |
| LOU-NH91 | 0.384 |
| LU99A | 0.873 |
| LXF-289 | 0.876 |
| NCI-H23 | 1.03 |
| NCI-H322M | 0.991 |
| NCI-H441 | 0.492 |
| NCI-H460 | 0.913 |
| NCI-H520 | 0.536 |
| NCI-H596 | 0.986 |
| NCI-H647 | 0.533 |
| NCI-H650 | 0.899 |
| NCI-H661 | 0.55 |
| NCI-H838 | 0.612 |
| NCI-H1355 | 1.18 |
| NCI-H1437 | 0.187 |
| NCI-H1650 | 0.216 |

| Cell Line | relative viability |
| --- | --- |
| NCI-H1651 | 0.896 |
| NCI-H1666 | 0.474 |
| NCI-H1734 | 0.712 |
| NCI-H1755 | 0.802 |
| NCI-H1915 | 1.01 |
| NCI-H1975 | 0.36 |
| NCI-H1993 | 0.689 |
| NCI-H2009 | 0.944 |
| NCI-H2023 | 0.309 |
| NCI-H2085 | 0.964 |
| NCI-H2087 | 0.726 |
| NCI-H2126 | 1 |
| NCI-H2228 | 0.599 |
| NCI-H2347 | 1.08 |
| NCI-H2405 | 0.992 |
| NCI-H3122 | 1.06 |

Same assay, conditions: first compound 50 µM

| Cell Line | relative viability |
| --- | --- |
| LOU-NH91 | 0.426 |
| LU99A | 0.191 |
| LXF-289 | 0.443 |
| NCI-H23 | 0.656 |
| NCI-H322M | 1.09 |
| NCI-H441 | 0.441 |
| NCI-H460 | 0.0451 |
| NCI-H520 | 0.108 |
| NCI-H596 | 0.789 |
| NCI-H647 | 0.748 |
| NCI-H650 | 0.499 |
| NCI-H661 | 0.464 |
| NCI-H838 | 0.167 |
| NCI-H1355 | 0.545 |
| NCI-H1437 | 0.119 |
| NCI-H1650 | 0.189 |
| NCI-H1651 | 0.772 |

| Cell Line | relative viability |
| --- | --- |
| NCI-H1666 | 0.228 |
| NCI-H1734 | 0.292 |
| NCI-H1755 | 0.441 |
| NCI-H1915 | 0.687 |
| NCI-H1975 | 0.348 |
| NCI-H1993 | 0.516 |
| NCI-H2009 | 0.186 |
| NCI-H2023 | 0.101 |
| NCI-H2085 | 0.517 |
| NCI-H2087 | 0.335 |
| NCI-H2126 | 1.11 |
| NCI-H2228 | 0.252 |
| NCI-H2347 | 0.886 |
| NCI-H2405 | 0.79 |
| NCI-H3122 | 0.352 |
| PC-3 [JPC-3] | 0.645 |

What follows are cell lines tested with CN1CCN(CC1)C2=CC(=C(C=C2)NC3=NC=C4C(=N3)N(C5=CC=CC=C5C(=O)N4C)C)OC [XMD8-85] + Nc1nc2[nH]cc(CCc3ccc(C(=O)N[C@@H](CCC(=O)O)C(=O)O)cc3)c2c(=O)[nH]1 [Pemetrexed] (partner 0.2 µM) in the same assay as above. Conditions: first compound 0.08 µM.
Outline: as §1

| Cell Line | relative viability |
| --- | --- |
| LOU-NH91 | 0.281 |
